In patent US11072632B2, “Inhibitors of 17β-HSD1, 17β-HSD3 and 17β-HSD10” (UNIVERSITÉ LAVAL, priority 2011, dated 2021):
Read-outs that look alike come from different tables or passages of the source.

Key:
17β-HSD3 [1] = target: T1, 17β-HSD3 (Homo sapiens, UniProt P37058); assay: Inhibition of 17β-HSD3 in homogenated HEK-293 cells; type: biochemical; settings: for Homo (%) (0.01 μM) / Homo (%) (0.1 μM): Table 3
T1 construct: expressed in transfected cells; host or cells: HEK-293 (homogenate)
T1 sequence (P37058 1-310): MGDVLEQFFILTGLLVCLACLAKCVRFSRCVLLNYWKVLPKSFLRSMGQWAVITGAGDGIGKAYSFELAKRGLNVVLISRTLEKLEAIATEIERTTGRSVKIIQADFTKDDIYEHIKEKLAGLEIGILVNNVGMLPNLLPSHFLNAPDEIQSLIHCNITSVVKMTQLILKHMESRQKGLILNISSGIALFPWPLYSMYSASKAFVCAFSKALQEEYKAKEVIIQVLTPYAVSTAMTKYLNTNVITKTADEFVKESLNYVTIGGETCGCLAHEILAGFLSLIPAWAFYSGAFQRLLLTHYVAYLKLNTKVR

17β-HSD10 = target: T2, 17β-HSD10 (Homo sapiens, UniProt Q99714); assay: Inhibition of 17β-HSD10 in stably transfected HEK-293 whole cells (E2 into E1); type: cell-based; settings: for Inhibition (%) at 1 μM: [14C]-E2 (1 μM) into [14C]-E1, intact HEK-293 cells
T2 construct: expressed in transfected cells
T2 sequence (Q99714 1-261): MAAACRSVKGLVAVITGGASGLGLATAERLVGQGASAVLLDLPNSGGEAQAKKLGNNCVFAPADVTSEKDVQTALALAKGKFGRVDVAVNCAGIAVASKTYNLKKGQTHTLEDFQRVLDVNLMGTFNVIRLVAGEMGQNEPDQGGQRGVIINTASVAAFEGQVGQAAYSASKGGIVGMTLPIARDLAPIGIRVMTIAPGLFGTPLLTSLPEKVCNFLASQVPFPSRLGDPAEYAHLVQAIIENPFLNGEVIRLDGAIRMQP

17β-HSD3 [2] = target: T1, 17β-HSD3; assay: Inhibition of 17β-HSD3 in intact HEK-293 cells; type: cell-based; settings: 0.1 μM; for Intact cells (%) (0.1 μM): Table 3
17β-HSD1 = target: T3, 17β-HSD1 (Homo sapiens, UniProt P14061); assay: Inhibition of 17β-HSD1 in T-47D intact cells (E1 into E2); type: cell-based; settings: T47D; for inhibition at 1 µM: read-out: Inhibition (1 μM)
T3 construct: endogenous in cells; host or cells: T-47D
T3 sequence (P14061 1-328): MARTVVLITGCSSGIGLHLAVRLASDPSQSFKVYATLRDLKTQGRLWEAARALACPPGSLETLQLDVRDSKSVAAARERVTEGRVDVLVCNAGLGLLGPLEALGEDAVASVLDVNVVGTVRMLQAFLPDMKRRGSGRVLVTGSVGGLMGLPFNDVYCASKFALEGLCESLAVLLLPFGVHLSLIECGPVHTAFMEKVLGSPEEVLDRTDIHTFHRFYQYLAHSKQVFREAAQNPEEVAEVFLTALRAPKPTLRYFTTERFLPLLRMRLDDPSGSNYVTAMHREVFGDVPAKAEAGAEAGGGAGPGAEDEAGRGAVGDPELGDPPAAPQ
Experimental: T-47D cells were seeded in a 24-well plate (3000 cells/well) in medium supplemented with insulin (50 ng/mL) and 5% dextran-coated charcoal treated FBS rather than 10% FBS to remove remaining hormones. […] Each inhibitor was assessed in triplicate. After incubation, the culture medium was removed and labelled steroids (E1 and E2) extracted with 1 mL of diethyl ether. The organic phases were separated and evaporated to dryness using nitrogen. Residues were dissolved in dichloromethane and dropped on silica gel thin layer chromatography plates (EMD Chemicals Inc., Gibbstown, N.J., USA) and eluted with a toluene/acetone (4:1) solvent system. Substrate [^14C]-E1 and metabolite [^14C]-E2 were identified by comparison with reference steroids and quantified using a Storm 860 system (Molecular Dynamics, Sunnyvale, Calif., USA).
T-47D cells were seeded in a 24-well plate (3000 cells/well) in 990 μL of medium supplemented with insulin (50 ng/mL) and 5% dextran-coated charcoal-treated FBS, which was used rather than untreated 10% FBS, to remove the remaining steroid hormones. […] The final concentration of ethanol in the well was adjusted to 0.1%. Additionally, 5 μL of a solution of [^14C]-estrone (American Radiolabeled Chemicals, Inc., St. Louis, Mo., USA) was added to obtain a final concentration of 60 nM. […] After incubation, the culture medium was removed and labeled steroids (E1 and E2) were extracted with 1 mL of diethyl ether. The organic phases were evaporated to dryness with nitrogen. Residues were dissolved in dichloromethane and dropped on silica gel thin layer chromatography plates (EMD Chemicals Inc., Gibbstown, N.J., USA) and eluted with toluene/acetone (4:1) as solvent system. Substrate [^14C]-E1 and metabolite [^14C]-E2 were identified by comparison with reference steroids (E1 and E2) and quantified using the Storm 860 system (Molecular Dynamics, Sunnyvale, Calif., USA).

MCF-7 cells = assay: Estrogenic activity in MCF-7 cells; type: cell-based, human; settings: 7 days; for Estrogenicity (1.0 μM) / Estrogenicity (0.1 μM): growth of estrogen-starved MCF-7 cells; on Estrogenicity (0.1 μM): key: — = no; + = weak; ++ = medium to strong; on Estrogenicity (1.0 μM): key: — = no; + = weak; ++ = medium to strong
Experimental: MCF-7 cells were seeded with medium supplemented with insulin (50 ng/mL) and 5% dextran-coated charcoal treated FBS rather than 10% FBS to remove remaining hormones. Aliquots (100 μL) of the cell suspension were seeded in 96-well plates (3000 cells/well). […] Cells were grown either in the absence or presence of the compounds over a period of 7 days. Quantification of cell growth was determined by using the CellTiter 96®Aqueous Solution Cell Proliferation Assay (Promega, Nepean, ON, Canada) following the manufacturer's instructions. To determine the proliferative (estrogenic) activity, the cells were grown in the absence (control fixed as 100%) or presence of the tested compounds at the indicated concentrations.

[3] = Table 2 (17β-HSD1), [14C]-E1 60 nM, T-47D intact cells, 0.1 μM, read-out: Inhibition (0.1 μM)
[4] = Table 2 (17β-HSD1), [14C]-E1 60 nM, T-47D intact cells, 1 μM

Row | SMILES | inhibition at 0.1 µM (17β-HSD1; [3]) | inhibition at 1 µM (17β-HSD1; [4]) | Estrogenicity (1.0 μM) (MCF-7 cells) | inhibition at 0.1 µM (17β-HSD1; read-out: Inhibition (0.1 μM)) | inhibition at 1 µM (17β-HSD1) | also measured
1 | C[C@]12CC[C@](O)(CN3CCN(S(=O)(=O)c4ccc(C(F)(F)F)cc4)CC3)C[C@@H]1CC[C@@H]1[C@@H]2CC[C@]2(C)C(=O)CC[C@@H]12 [Compound 14c, (3α,5α)-3-hydroxy-3-[(4-{[4-(trifluoromethyl)phenyl]sulfonyl}-piperazin-1-yl)methyl]androstan-17-one] |  |  |  |  |  | inhibition at 0.01 µM (17β-HSD3 [1]; read-out: Homo (%) (0.01 μM), Table 3): 21%; inhibition at 0.1 µM (17β-HSD3 [1]; read-out: Homo (%) (0.1 μM), Table 3): 78%; inhibition at 1 µM (17β-HSD10; HEK293, read-out: Inhibition (%) at 1 μM): 14%; inhibition at 0.1 µM (17β-HSD3 [2]; HEK293, 1 h, read-out: Intact cells (%) (0.1 μM), Table 3): 34%
2 | CC1CN(S(=O)(=O)c2cccc(C(F)(F)F)c2)C(C)CN1C[C@@]1(O)CC[C@@]2(C)[C@@H](CC[C@@H]3[C@@H]2CC[C@]2(C)C(=O)CC[C@@H]32)C1 (stereo partly drawn) [Compound 15a, (3α,5α)-3-{[(2ξ,5ξ)-2,5-dimethyl-4-{[3-(trifluoromethyl)phenyl]sulfonyl}piperazin-1-yl]methyl}-3-hydroxyandrostan-17-one] |  |  |  |  |  | Homo (%) (0.01 μM) (17β-HSD3 [1]): 32%; Homo (%) (0.1 μM) (17β-HSD3 [1]): 91%; Inhibition (%) at 1 μM (17β-HSD10): 42%; Intact cells (%) (0.1 μM) (17β-HSD3 [2]): 77%
3 | CC1CN(S(=O)(=O)c2ccccc2C(F)(F)F)C(C)CN1CC1(O)CCC2(C)C(CCC3C4CCC(=O)C4(C)CCC32)C1 (stereo not drawn) [Compound 15c] |  |  |  |  |  | Homo (%) (0.01 μM) (17β-HSD3 [1]): 79%; Homo (%) (0.1 μM) (17β-HSD3 [1]): 92%; Inhibition (%) at 1 μM (17β-HSD10): 18%; Intact cells (%) (0.1 μM) (17β-HSD3 [2]): 47%
4 | C[C@]12CC[C@@]3(C[C@@H]1CC[C@@H]1[C@@H]2CC[C@]2(C)C(=O)CC[C@@H]12)CN(CCO)C(=O)O3 [Compound 21, (3R,5S,8R,9S,10S,13S,14S)-3′-(2-hydroxyethyl)-10,13-dimethyltetrahydrodecahydro-2′H-spiro[cyclopenta[α]phenanthrene-3,5′-[1,3]oxazolidine]-2′,17(2H)-dione] |  |  |  |  |  | inhibition at 0.01 µM (17β-HSD3 [1]; read-out: Homo (%) (0.01 μM), Table 4): 0%; inhibition at 0.1 µM (17β-HSD3 [1]; read-out: Homo (%) (0.1 μM), Table 4): 9%; inhibition at 1 µM (17β-HSD3 [1]; read-out: Homo (%) (1.0 μM), Table 4, 1.0 μM): 38%; IC50 (17β-HSD10; intact transfected HEK-293 cells, E2 1 μM, read-out: IC50): 550 nM; Intact cells (%) (0.1 μM), tested in another experiment (17β-HSD3 [2]; Table 4, footnote b): 16^b %
5 | C[C@]12CC[C@@H]3c4ccc(CC(=O)O)cc4CC[C@H]3[C@@H]1C[C@H](Cc1cccc(C(N)=O)c1)[C@@H]2O [Compound 31, [(16β,17β)-16-(3-carbamoylbenzyl)-17-hydroxyestra-1(10),2,4-trien-3-yl]acetic acid] | 12% | 29% | + |  |  | 
6 | C[C@]12CC[C@@H]3c4ccc(C(=O)O)cc4CC[C@H]3[C@@H]1C[C@H](Cc1cccc(C(N)=O)c1)[C@@H]2O [Compound 36, (16β,17β)-16-(3-carbamoylbenzyl)-17-hydroxyestra-1,3,5(10)-triene-3-carboxylic acid] | 5% | 8% | ++ |  |  | 
7 | C[C@]12CC[C@@H]3c4ccc(CN)cc4CC[C@H]3[C@@H]1C[C@H](Cc1cccc(C(N)=O)c1)[C@@H]2O [Compound 39, 3-{[(16β,17β)-3-(aminomethyl)-17-hydroxyestra-1,3,5(10)-trien-16-yl]methyl}benzamide] |  |  | ++ | 35% | 73% | Estrogenicity (0.1 μM) (MCF-7 cells): ++
8 | CNC(=O)c1ccc2c(c1)CC[C@@H]1[C@@H]2CC[C@]2(C)[C@@H](O)[C@@H](Cc3cccc(C(N)=O)c3)C[C@@H]12 [Compound 41d, (16β,17β)-16-(3-carbamoylbenzyl)-17-hydroxy-N-methylestra-1,3,5(10)-triene-3-carboxamide] |  |  | + | 3% | 5% | 
9 | C[C@]12CC[C@@H]3c4ccc(B(O)O)cc4CC[C@H]3[C@@H]1C[C@H](Cc1cccc(C(N)=O)c1)[C@@H]2O [Compound 46, [(16β,17β)-16-(3-carbamoylbenzyl)-17-hydroxyestra-1(10),2,4-trien-3-yl]boronic acid] | 39% |  | ++ |  |  | Estrogenicity (0.1 μM) (MCF-7 cells): ++
10 | C[C@]12CC[C@@H]3c4ccc(N)cc4CC[C@H]3[C@@H]1C[C@H](Cc1cccc(C(N)=O)c1)[C@@H]2O [Compound 50, 3-{[(16β,17β)-3-amino-17-hydroxyestra-1,3,5(10)-trien-16-yl]methyl}benzamide] |  |  | + | 35% | 43% | 
11 | C[C@]12CC[C@@H]3c4ccc(F)cc4CC[C@H]3[C@@H]1C[C@H](Cc1cccc(C(N)=O)c1)[C@@H]2O [Compound 57, 3-{[(16β,17β)-3-fluoro-17-hydroxyestra-1(10),2,4-trien-16-yl]methyl}benzamide] |  |  | + | 48% | 50% | 
12 | C[C@]12CC[C@@H]3c4ccc(C(N)=O)cc4CC[C@H]3[C@@H]1C[C@H](Cc1cccc(C(N)=O)c1)[C@@H]2O [Compound 61, (16β,17β)-16-(3-carbamoylbenzyl)-17-hydroxyestra-1,3,5(10)-triene-3-carboxamide] | 3% | 23% | ++ |  |  | 
13 | C[C@]12CC[C@@H]3c4ccc(CO)cc4CC[C@H]3[C@@H]1C[C@H](Cc1cccc(C(N)=O)c1)[C@@H]2O [II, 3-{[(16β,17β)-17-hydroxy-3-(hydroxymethyl)estra-1,3,5(10)-trien-16-yl]methyl}benzamide] | 56% | 73% | + |  |  | inhibition at 0.01 µM (17β-HSD1; [14C]-E1 (60 nM) into [14C]-E2, T-47D intact cells, 0.01 μM, read-out: Inhibition % (0.01 μM)): 14%; inhibition at 0.1 µM (17β-HSD1; [14C]-E1 (60 nM) into [14C]-E2, T-47D intact cells, 0.1 μM, read-out: Inhibition % (0.1 μM)): 37%; estrogenic activity on MCF-7 cells (FIG. 1) (MCF-7 cells; concentrations up to 5 μM): significant estrogenic activity
